{
  "source": "patent US20240350660A1",
  "about": "“Compositions and Methods for Increasing Bioavailability Using Cyclodextrin Modification” (priority 2021, published 2024)",
  "key": {"[1]": {"test_system": "mouse model of diabetes (streptozotocin-induced)", "test": "Streptozotocin-induced diabetes mouse model, blood glucose 4 hours post treatment", "type": "in vivo, mice (C57BL/6)", "protocol": "Eight week old male C57BL/6 strain of mice were used. The mice were fed on standard diet and water ad libitum. Diabetes was induced by intraperitoneal injection of 60 mg/kg of a freshly prepared streptozotocin (STZ) dissolved in 0.1 M cold citrate buffer at a pH of 4.5. Body weight, food, and fluid intake were monitored daily. Induction was continued for 7 consecutive days until chronic polydipsia and polyuria was established. Post-prandial blood glucose levels were measured by blood glucose strips, and mice with levels higher than 400 mg/dL were defined as chronically diabetic and chosen for experiments. Test animals were treated with product by oral gavage. For a given product, n=6 animals were treated. Blood samples for whole blood glucose were obtained from the tail tip 4 hours post treatment, and blood glucose levels were measured by Roche blood glucose strips. Means and standard error of the means were calculated. Differences in mean post-prandial blood glucose 4 hours post treatment of animals treated with product and untreated control […] diabetic animals (n=6) were calculated. Relative clinical effects of the products tested were determined by comparing the difference in blood glucose of treated relative to untreated controls."}, "SARS-COV-2 [2]": {"test_system": "SARS-COV-2", "test": "Human ACE2 transgenic COVID-19 mouse model (body weight, survival)", "type": "in vivo, hACE2 transgenic mice", "conditions": "Daily"}, "SARS-COV-2 [3]": {"test_system": "SARS-COV-2", "test": "SARS-COV-2 replication in Vero E6 cells in vitro (viral load by RT-PCR)", "type": "cell-based", "conditions": "Severe acute respiratory syndrome coronavirus 2, Vero C1008; FIG. 3; cells treated at 1 μM final concentration; complexes at 1:1 molar ratio; read-out: Inhibition of SARS-COV-2 replication over untreated"}, "[4]": {"conditions": "25 mg/kg oral gavage, n=6, glucose levels given in mg/dL"}, "[5]": {"conditions": "200 mg/kg, Pretreatment to Day 7"}},
  "data": [
    {"compound": "OC[C@H]1O[C@@H]2O[C@H]3[C@H](O)[C@@H](O)[C@@H](O[C@H]4[C@H](O)[C@@H](O)[C@@H](O[C@H]5[C@H](O)[C@@H](O)[C@@H](O[C@H]6[C@H](O)[C@@H](O)[C@@H](O[C@H]7[C@H](O)[C@@H](O)[C@@H](O[C@H]8[C@H](O)[C@@H](O)[C@@H](O[C@H]1[C@H](O)[C@H]2O)O[C@@H]8CO)O[C@@H]7CO)O[C@@H]6CO)O[C@@H]5CO)O[C@@H]4CO)O[C@@H]3CO", "note": "[Betacyclodextrin alone, beta-cyclodextrin]", "values": [
      {"measurement": "Difference in 4 h Blood Glucose vs. Untreated", "setting": "[1]; [4]", "result": 35.46}
    ]},
    {"compound": "Cc1cnc(C(=O)NCCc2ccc(S(=O)(=O)NC(=O)NC3CCCCC3)cc2)cn1", "note": "[Glipizide]", "values": [
      {"measurement": "Difference in 4 h Blood Glucose vs. Untreated", "setting": "[1]; 5 mg/kg oral gavage, n=6", "result": 198.0}
    ]},
    {"compound": "CN(C)C(=N)N=C(N)N", "note": "[Metformin]", "values": [
      {"measurement": "Difference in 4 h Blood Glucose vs. Untreated", "setting": "[1]; 200 mg/kg oral", "result": 173.9},
      {"measurement": "Difference in 4 h Blood Glucose vs. Untreated", "setting": "[1]; 250 mg/kg oral gavage, n=6", "result": 181.7}
    ]},
    {"compound": "O=c1c(O)c(-c2ccc(O)c(O)c2)oc2cc(O)cc(O)c12", "note": "[Quercitin]", "values": [
      {"measurement": "Survival", "setting": "SARS-COV-2 [2]; 66 mg/kg, Pretreatment to Day 7", "result": 80, "unit": "%"},
      {"measurement": "Survival", "setting": "SARS-COV-2 [2]; [5]", "result": 100, "unit": "%"}
    ]},
    {"compound": "CCC(CC)COC(=O)[C@H](C)N[P@](=O)(OC[C@H]1O[C@@](C#N)(c2ccc3c(N)ncnn23)[C@H](O)[C@@H]1O)Oc1ccccc1", "note": "[Remdesivir]", "values": [
      {"measurement": "Survival", "setting": "SARS-COV-2 [2]; 50 mg/kg, Day 1 post-treatment to 7", "result": 100, "unit": "%"},
      {"measurement": "Survival", "setting": "SARS-COV-2 [2]; [5]", "result": 100, "unit": "%"}
    ]},
    {"compound": "COc1cc(/C=C/C(=O)CC(=O)/C=C/c2ccc(O)c(OC)c2)ccc1O", "note": "[Unconjugated Curcumin, curcumin]", "values": [
      {"measurement": "Difference in 4 h Blood Glucose vs. Untreated", "setting": "[1]; 5 mg/kg oral gavage, n=6", "result": 29.8},
      {"measurement": "Difference in 4 h Blood Glucose vs. Untreated", "setting": "[1]; [4]", "result": 60.22}
    ]},
    {"compound": "C[C@@H]1O[C@@H](OC[C@H]2O[C@@H](Oc3c(-c4ccc(O)c(O)c4)oc4cc(O)cc(O)c4c3=O)[C@H](O)[C@@H](O)[C@@H]2O)[C@H](O)[C@H](O)[C@H]1O", "note": "[rutin]", "values": [
      {"measurement": "inhibition at 1 µM", "setting": "SARS-COV-2 [3]", "result": "~25", "unit": "%"}
    ]},
    {"compound": "Insulin", "values": [
      {"measurement": "Difference in 4 h Blood Glucose vs. Untreated", "setting": "[1]; 0.5 IU sc", "result": 203.2},
      {"measurement": "Difference in 4 h Blood Glucose vs. Untreated", "setting": "[1]; 1 IU sc", "result": 236.2}
    ]}
  ]
}
